Source: ChEMBL document CHEMBL5724709, “EUbOPEN Chemogenomics Library - IncuCyte” (2024)

Tests used:
Assay type in all cases: toxicity, cell-based
U2OS = test: Incucyte cell viability with U2OS; settings: human, 24 h, 10 µM, compound concentration 10 uM
HEK-293T = test: Incucyte cell viability with HEK293T; settings: human, 24 h, 10 µM, compound concentration 10 uM
Fibroblast = test: Incucyte cell viability with human fibroblast; settings: 24 h, 10 µM, compound concentration 10 uM
Also: unitless GR value; below 1 slowed growth and below 0 cell loss.

COc1cc(-c2cn(C)c(=O)c3cnccc23)cc(OC)c1CN(C)CC(=O)NCCOCCOCCNc1cccc2c1C(=O)N(C1CCC(=O)NC1=O)C2=O (stereo not drawn)
Growth Rate (U2OS; replicate number 1): 0.78 | Growth Rate (U2OS; replicate number 2): 0.96 | Growth Rate (HEK-293T; replicate number 1): 0.8 | Growth Rate (HEK-293T; replicate number 2): 0.98 | Growth Rate (Fibroblast; replicate number 1): 0.26 | Growth Rate (Fibroblast; replicate number 2): 0.72

CCCNC(=O)[C@H]1O[C@@H]1C(=O)N[C@H](C(=O)N1CCC[C@H]1C(=O)O)[C@@H](C)CC
Growth Rate (U2OS; replicate number 1): 1 | Growth Rate (HEK-293T; replicate number 1): 0.63 | Growth Rate (HEK-293T; replicate number 2): 0.84 | Growth Rate (Fibroblast; replicate number 1): 0.65 | Growth Rate (Fibroblast; replicate number 2): 1

CCOCC1(COCC)CCC(c2n[nH]cc2CN(C)CCNC)CC1.Cl
Growth Rate (U2OS; replicate number 1): 0.95 | Growth Rate (HEK-293T; replicate number 1): 0.61 | Growth Rate (HEK-293T; replicate number 2): 0.63 | Growth Rate (Fibroblast; replicate number 1): 1 | Growth Rate (Fibroblast; replicate number 2): 0.32

Br.N#Cc1ccc(-c2csc(NN=C3CCCC3)n2)cc1
Growth Rate (U2OS; replicate number 1): 0.63 | Growth Rate (U2OS; replicate number 2): 1 | Growth Rate (HEK-293T; replicate number 1): -0.06 | Growth Rate (HEK-293T; replicate number 2): 0.21 | Growth Rate (Fibroblast; replicate number 1): 0.31 | Growth Rate (Fibroblast; replicate number 2): 0.62

O=C(O)/C(S)=C/c1ccc(I)cc1
Growth Rate (U2OS; replicate number 1): 1 | Growth Rate (HEK-293T; replicate number 1): 0.71 | Growth Rate (HEK-293T; replicate number 2): 0.86 | Growth Rate (Fibroblast; replicate number 1): 1 | Growth Rate (Fibroblast; replicate number 2): 0.47

C=C(C)[C@@H](CC=C(C)C)C[C@@]12C[C@@H](CC=C(C)C)C(C)(C)[C@@](CC=C(C)C)(C(=O)C(C(=O)c3ccc(O)c(O)c3)=C1O)C2=O [GARCINOL]
Growth Rate (U2OS; replicate number 1): 1 | Growth Rate (U2OS; replicate number 2): 0.75 | Growth Rate (HEK-293T; replicate number 1): 0.69 | Growth Rate (HEK-293T; replicate number 2): 0.83 | Growth Rate (Fibroblast; replicate number 1): 0.23 | Growth Rate (Fibroblast; replicate number 2): 1
